This is an account of results in patent publication EP4582423A1, “NOVEL TRICYCLIC DERIVATIVE COMPOUND AND USES THEREOF” (Hanmi Pharm. Co., Ltd., priority 2022, dated 2024).

One test has as its system HCT116 MTAP-/- cells. Put plainly: Cell growth inhibition test (SRB staining). It is filed as cell-based. To be noted: HCT116 MTAP-/- cells, 0.64 nM - 2,000 nM, 6 dose points, 6 days, SRB staining, absorbance at 540 nm; read-out: HCT116 MTAP-/- cell growth inhibition (GI50). As to the method: The synthetic compounds above were tested for cell growth inhibition against HCT116 cells.
HCT116 MTAP-/- (homozygous knockout of MTAP gene in HCT116 MTAP-WT cells by CRISPER/Cas9 method) cells were maintained in RPMI1640 medium containing 10 % FBS and 1 % penicillin-streptomycin. Approximately 5×10^2 cells were seeded in a 96-well plate and treated with a test compound. (0.64 nM - 2,000 nM, 6 dose points for HCT116 MTAP-/- cells for 5x and 6 days) cell growth was measured by SRB staining and absorbance was detected at 540 nm on a Synergy™ NEO microplate reader. The 50 % growth inhibition value (GI50) of the cell line was calculated using GraphPad Prism V9 software.
Background: Sulforhodamine B stains cellular protein and so reports cell mass.
For the molecule “7-chloro-2-(4-methoxyphenyl)-1-methyl-5-(o-tolyl)-1,5-dihydro-4H-imidazo[4,5-c]quinolin-4-one [Compound 10]”, the GI50 was less than 100 nM.

The same test, now with this note: Homo sapiens, HCT-116, 144 h, read-out: HCT116 MTAP-/- cell growth inhibition (GI50, nM).
As for `Cn1c(Cc2ccccc2)nc2c(=O)n(-c3ccccc3)c3cc(Cl)ccc3c21` [Compound 1, 2-benzyl-7-chloro-1-methyl-5-phenyl-1,5-dihydro-4H-imidazo[4,5-c]quinolin-4-one], the GI50 lay within 100 to 500 nM.

The same test, now with this note: Homo sapiens, HCT-116, 144 h; HCT116 MTAP-/- cells, 0.64 nM - 2,000 nM, 6 dose points, 6 days, SRB staining, absorbance at 540 nm; read-out: HCT116 MTAP-/- cell growth inhibition (GI50).
`Cc1ncccc1-n1c(=O)c2nc(Cc3ccc(OC(F)F)cc3)n(C)c2c2ccc(C3CC3)nc21` [Compound 66, 7-cyclopropyl-2-(4-(difluoromethoxy)benzyl)-1-methyl-5-(2-methylpyridin-3-yl)-1,5-dihydro-4H-imidazo[4,5-c][1,8]naphthyridin-4-one]: the GI50 is less than 100 nM.

For `COc1ccc(Sc2nc3c(=O)n(-c4cccnc4C)c4nc(C(F)(F)F)ncc4c3n2C)cc1` [Compound 61, 2-((4-methoxyphenyl)thio)-1-methyl-5-(2-methylpyridin-3-yl)-7-(trifluoromethyl)-1,5-dihydro-4H-imidazo[4',5':4,5]pyrido[2,3-d]pyrimidin-4-one], the GI50 is less than 100 nM.

For `C#Cc1ccc2c3c(nc(Cc4ccc(OC)cc4)n3C)c(=O)n(-c3cccnc3C)c2c1` [Compound 47, 7-ethynyl-2-(4-methoxybenzyl)-1-methyl-5-(2-methylpyridin-3-yl)-1,5-dihydro-4H-imidazo[4,5-c]quinolin-4-one], the GI50 was less than 100 nM.

Turning to `COc1ccc(Sc2nc3c(=O)n(-c4cccnc4C)c4cc(Cl)ccc4c3n2C)cc1` [Compound 35, 7-chloro-2-((4-methoxyphenyl)thio)-1-methyl-5-(2-methylpyridin-3-yl)-1,5-dihydro-4H-imidazo[4,5-c]quinolin-4-one], the GI50 was less than 100 nM.

Turning to `CCc1ccc2c3c(nc(Cc4ccc(OC(F)F)cc4)n3C)c(=O)n(-c3cccnc3C)c2c1` [Compound 54, 2-(4-(difluoromethoxy)benzyl)-7-ethyl-1-methyl-5-(2-methylpyridin-3-yl)-1,5-dihydro-4H-imidazo[4,5-c]quinolin-4-one], the GI50 was less than 100 nM.

`COc1ccc2c3c(nc(Cc4ccc(OC(F)F)cc4)n3C)c(=O)n(-c3cccnc3C)c2n1` [Compound 63, 2-(4-(difluoromethoxy)benzyl)-7-methoxy-1-methyl-5-(2-methylpyridin-3-yl)-1,5-dihydro-4H-imidazo[4,5-c][1,8]naphthyridin-4-one]: the GI50 was less than 100 nM.

Consider `Cc1ncccc1-n1c(=O)c2nc(Cc3ccc(F)c(F)c3)n(C)c2c2ccc(Cl)cc21` [Compound 30, 7-chloro-2-(3,4-difluorobenzyl)-1-methyl-5-(2-methylpyridin-3-yl)-1,5-dihydro-4H-imidazo[4,5-c]quinolin-4-one], for which the GI50 is less than 100 nM.

As for `Cc1ncccc1-n1c(=O)c2nc(Sc3ccc(F)cc3)n(C)c2c2ccc(C(F)(F)F)nc21` [Compound 60, 2-((4-fluorophenyl)thio)-1-methyl-5-(2-methylpyridin-3-yl)-7-(trifluoromethyl)-1,5-dihydro-4H-imidazo[4,5-c][1,8]naphthyridin-4-one], the GI50 lay within 100 to 500 nM.

As to `O=c1c2nc(Cc3ccccc3)[nH]c2c2ccc(Cl)cc2n1-c1ccccc1` [Compound 11, 2-benzyl-7-chloro-5-phenyl-1,5-dihydro-4H-imidazo[4,5-c]quinolin-4-one], the GI50 was 500 to 1000 nM.

With `COc1ccccc1Cc1nc2c(=O)n(-c3ccccc3)c3cc(Cl)ccc3c2n1C` [Compound 5, 7-chloro-2-(2-methoxybenzyl)-1-methyl-5-phenyl-1,5-dihydro-4H-imidazo[4,5-c]quinolin-4-one], the GI50 lay within 100 to 500 nM.

As to `COc1ccc(Cc2nc3c(=O)n(-c4cccnc4C)c4nc(OC)ccc4c3n2C)cc1` [Compound 64, 7-methoxy-2-(4-methoxybenzyl)-1-methyl-5-(2-methylpyridin-3-yl)-1,5-dihydro-4H-imidazo[4,5-c][1,8]naphthyridin-4-one], the GI50 was less than 100 nM.

Consider `Cn1c(Cn2ccnc2)nc2c(=O)n(-c3ccccc3)c3cc(Cl)ccc3c21` [Compound 12, 2-((1H-imidazol-1-yl)methyl)-7-chloro-1-methyl-5-phenyl-1,5-dihydro-4H-imidazo[4,5-c]quinolin-4-one], for which the GI50 is more than 1000 nM.

Turning to `CCOc1ncc2c3c(nc(Cc4ccc(OC)cc4)n3C)c(=O)n(-c3cccnc3C)c2n1` [Compound 62, 7-ethoxy-2-(4-methoxybenzyl)-1-methyl-5-(2-methylpyridin-3-yl)-1,5-dihydro-4H-imidazo[4',5':4,5]pyrido[2,3-d]pyrimidin-4-one], the GI50 is more than 1000 nM.

As to `CCc1ccc2c3c(nc(Cc4ccc(OC)cc4)n3C)c(=O)n(-c3cccnc3C)c2c1` [Compound 45, 7-Ethyl-2-(4-methoxybenzyl)-1-methyl-5-(2-methylpyridin-3-yl)-1,5-dihydro-4H-imidazo[4,5-c]quinolin-4-one], the GI50 is less than 100 nM.

Consider `COc1ccc(Cc2nc3c(=O)n(-c4cccnc4C)c4cc(C5CC5)ccc4c3n2C)cc1` [Compound 46, 7-Cyclopropyl-2-(4-methoxybenzyl)-1-methyl-5-(2-methylpyridin-3-yl)-1,5-dihydro-4H-imidazo[4,5-c]quinolin-4-one], for which the GI50 was less than 100 nM.

Regarding `COc1ccc(Oc2nc3c(=O)n(-c4ccccc4)c4cc(Cl)ccc4c3n2C)cc1` [Compound 42, 7-chloro-2-(4-methoxyphenoxy)-1-methyl-5-phenyl-1,5-dihydro-4H-imidazo[4,5-c]quinolin-4-one], the GI50 was more than 1000 nM.

In the case of `COc1ccc(Cc2nc3c(=O)n(-c4ccccc4)c4cc(Cl)ccc4c3n2C)cc1OC` [Compound 8, 7-chloro-2-(3,4-dimethoxybenzyl)-1-methyl-5-phenyl-1,5-dihydro-4H-imidazo[4,5-c]quinolin-4-one], the GI50 was 100 to 500 nM.

With `COc1ccc(Cc2nc3c(=O)n(-c4cccnc4C)c4cc(N5CCCC5)ccc4c3n2C)cc1` [Compound 50, 2-(4-methoxybenzyl)-1-methyl-5-(2-methylpyridin-3-yl)-7-(pyrrolidin-1-yl)-1,5-dihydro-4H-imidazo[4,5-c]quinolin-4-one], the GI50 was more than 1000 nM.

Consider `Cn1c(Cc2ccncc2)nc2c(=O)n(-c3ccccc3)c3cc(Cl)ccc3c21` [Compound 7, 7-chloro-1-methyl-5-phenyl-2-(pyridin-4-ylmethyl)-1,5-dihydro-4H-imidazo[4,5-c]quinolin-4-one], for which the GI50 was more than 1000 nM.

Take `COc1ccc(Sc2nc3c(=O)n(-c4ccc(OC)cc4)c4cc(Cl)ccc4c3n2C)cc1` [Compound 34, 7-chloro-5-(4-methoxyphenyl)-2-((4-methoxyphenyl)thio)-1-methyl-1,5-dihydro-4H-imidazo[4,5-c]quinolin-4-one]: the GI50 is more than 1000 nM.

Turning to `CCc1ccc2c3c(nc(Cc4ccc(OC(F)F)cc4)n3C)c(=O)n(-c3cccnc3C)c2n1` [Compound 65, 2-(4-(difluoromethoxy)benzyl)-7-ethyl-1-methyl-5-(2-methylpyridin-3-yl)-1,5-dihydro-4H-imidazo[4,5-c][1,8]naphthyridin-4-one], the GI50 was less than 100 nM.

On to `COc1ccc2c3c(nc(Cc4ccc(OC(F)F)cc4)n3C)c(=O)n(-c3cccnc3C)c2c1` [Compound 55, 2-(4-(Difluoromethoxy)benzyl)-7-methoxy-1-methyl-5-(2-methylpyridin-3-yl)-1,5-dihydro-4H-imidazo[4,5-c]quinolin-4-one], for which the GI50 is less than 100 nM.

In the case of `COc1ccc(Sc2nc3c(=O)n(-c4ccccc4)c4cc(Cl)ccc4c3n2C)cc1` [Compound 18, 7-chloro-2-((4-methoxyphenyl)thio)-1-methyl-5-phenyl-1,5-dihydro-4H-imidazo[4,5-c]quinolin-4-one], the GI50 is less than 100 nM.

`COc1ccc(Cc2nc3c(=O)n(-c4ccc(Cl)c(F)c4)c4cc(Cl)ccc4c3n2C)cc1` [Compound 16, 7-chloro-5-(4-chloro-3-fluorophenyl)-2-(4-methoxybenzyl)-1-methyl-1,5-dihydro-4H-imidazo[4,5-c]quinolin-4-one]: the GI50 was more than 1000 nM.

`COc1ccc(Cc2nc3c(=O)n(-c4cccnc4C)c4cc(C)ccc4c3n2C)cc1` [Compound 49, 2-(4-methoxybenzyl)-1,7-dimethyl-5-(2-methylpyridin-3-yl)-1,5-dihydro-4H-imidazo[4,5-c]quinolin-4-one]: the GI50 fell in the range of 100 to 500 nM.

`Cc1ncccc1-n1c(=O)c2nc(Sc3ccc4c(c3)OCO4)n(C)c2c2ccc(Cl)cc21` [Compound 38, 2-(benzo[d][1,3]dioxol-5-ylthio)-7-chloro-1-methyl-5-(2-methylpyridin-3-yl)-1,5-dihydro-4H-imidazo[4,5-c]quinolin-4-one]: the GI50 is less than 100 nM.

Regarding `COc1ccc(Sc2nc3c(=O)n(-c4cccnc4C)c4nc(C(F)(F)F)ccc4c3n2C)cc1` [Compound 59, 2-((4-methoxyphenyl)thio)-1-methyl-5-(2-methylpyridin-3-yl)-7-(trifluoromethyl)-1,5-dihydro-4H-imidazo[4,5-c][1,8]naphthyridin-4-one], the GI50 is less than 100 nM.

`COc1ccc(Cc2nc3c(=O)n(-c4cccnc4C)c4cc(Cl)ccc4c3n2C)cc1` [Compound 21, 7-chloro-2-(4-methoxybenzyl)-1-methyl-5-(2-methylpyridin-3-yl)-1,5-dihydro-4H-imidazo[4,5-c]quinolin-4-one]: the GI50 is less than 100 nM.
